# Reference: patent US20230047788A1, “COMPOSITIONS COMPRISING 5-CHOLESTEN-3, 25-DIOL, 3-SULFATE (25HC3S) OR PHARMACEUTICALLY ACCEPTABLE SALT THEREOF AND AT LEAST ONE CYCLIC OLIGOSACCHARIDE” (Virginia Commonwealth University, priority 2016, published 2023)
# Assay: Effect of phosphate and borate buffers on chemical stability (% remaining, impurity profile), osmolality, pH and appearance of 25HC3S 30 mg/mL in 250 mg/mL HPBCD at 80°C and 60°C
# Assay type: physicochemical
# Parameters: First Order Rate Constant: unit not given beside the values
# Description: A total of six 25HC3S formulations at 30 mg/mL in 250 mg/mL of 2-hydroxypropyl beta cyclodextrin (HPBCD) containing 10, 20, 50 and 100 mM phosphate buffers at pH 7.5 to 8.1 and 10 and 50 mM borate buffers at pH 9.4 were prepared for the stability study. The chemical stability (measured as % remaining of 25HC3S) and physical stability (osmolality, pH and appearance) of the formulations were monitored under accelerated conditions for up to 7 days at 80° C. and up to 29 days at 60° C.
# Two stock solutions of phosphate buffer at 100 and 200 mM at pH 7.4 and 7.3, respectively and one borate buffer at 100 mM at pH 9.3 were prepared (Tables 22A and 22B) and used for 250 mg/mL HPBCD vehicles preparation (Table 23).
# Approximately 1200 mg each of 25HC3S was weighed into 40 mL volumetric flasks and diluted to volume with the six HPBCD vehicles containing 10-100 mM phosphate buffers or 10 and 50 mM borate buffers, respectively (Table 24). The final concentration of 25HC3S was 30 mg/mL (wt/volume, without adjusting for API purity). Aliquots of 2 mL of each formulation were filled into 2 mL glass vials, stoppered and sealed for stability sample set-up at 60° C. and 80° C. to study the effect of phosphate buffer (pH 7.5-8.1) and borate buffer (pH 9.4) at various buffer concentrations on the stability of the HPBCD formulations (Table 26).
# A 0.5 mL of sample solution was transferred to a 25 mL volumetric flask and QS'ed with methanol/water=95/5 for 25HC3S concentration determination by HPLC. The % remaining of 25HC3S was calculated as follows: […]
# [1] = 250 mg/mL HPBCD, 10 mM borate, 80°C, day 0
# [2] = 250 mg/mL HPBCD, 10 mM borate, 80°C, day 1
# [3] = 250 mg/mL HPBCD, 10 mM borate, 80°C, day 2
# [4] = 250 mg/mL HPBCD, 10 mM borate, 80°C, day 3
# [5] = 250 mg/mL HPBCD, 10 mM borate, 80°C, day 7
# [6] = 250 mg/mL HPBCD, 10 mM borate, day 0
# [7] = 250 mg/mL HPBCD, 10 mM phosphate, 80°C, day 0
# [8] = 250 mg/mL HPBCD, 10 mM phosphate, 80°C, day 1
# [9] = 250 mg/mL HPBCD, 10 mM phosphate, 80°C, day 2
# [10] = 250 mg/mL HPBCD, 10 mM phosphate, 80°C, day 3
# [11] = 250 mg/mL HPBCD, 10 mM phosphate, 80°C, day 7
# [12] = 250 mg/mL HPBCD, 10 mM phosphate, day 0
# [13] = 250 mg/mL HPBCD, 20 mM phosphate, 80°C, day 0
# [14] = 250 mg/mL HPBCD, 20 mM phosphate, 80°C, day 1
# [15] = 250 mg/mL HPBCD, 20 mM phosphate, 80°C, day 2
# [16] = 250 mg/mL HPBCD, 20 mM phosphate, 80°C, day 3
# [17] = 250 mg/mL HPBCD, 20 mM phosphate, 80°C, day 7
compound,measurement,setting,value
"C[C@H](CCCC(C)(C)O)[C@H]1CC[C@H]2[C@@H]3CC=C4C[C@@H](OS(=O)(=O)[O-])CC[C@]4(C)[C@H]3CC[C@]12C.[Na+] [25HC3S, 5-cholesten-3, 25-diol, 3-sulfate]",Calculated t90,"10 mM borate, 80°C",2.0 days
same,First Order Rate Constant,"10 mM borate, 80°C",−0.0463
same,Intercept (first order fit of % remaining),"10 mM borate, 80°C",98.9
same,Calculated t90,"10 mM phosphate, 80°C",2.3 days
same,First Order Rate Constant,"10 mM phosphate, 80°C",−0.0462
same,Intercept (first order fit of % remaining),"10 mM phosphate, 80°C",99.9
same,Calculated t90,"20 mM phosphate, 80°C",2.2 days
same,First Order Rate Constant,"20 mM phosphate, 80°C",−0.0437
same,Intercept (first order fit of % remaining),"20 mM phosphate, 80°C",99.2
same,Calculated t90,"50 mM borate, 80°C",1.9 days
same,First Order Rate Constant,"50 mM borate, 80°C",−0.0484
same,Intercept (first order fit of % remaining),"50 mM borate, 80°C",98.8
same,Calculated t90,"50 mM phosphate, 80°C",2.2 days
same,First Order Rate Constant,"50 mM phosphate, 80°C",−0.0451
same,Intercept (first order fit of % remaining),"50 mM phosphate, 80°C",99.5
same,Calculated t90,"100 mM phosphate, 80°C",2.2 days
same,First Order Rate Constant,"100 mM phosphate, 80°C",−0.0430
same,Intercept (first order fit of % remaining),"100 mM phosphate, 80°C",99
same,pH,"250 mg/mL HPBCD, 10 mM borate, 60°C, 29 days",8.90
same,25HC3S concentration,[1],28.58 mg/mL
same,% Remaining of 25HC3S,[1],100.0%
same,25HC3S concentration,[2],26.90 mg/mL
same,% Remaining of 25HC3S,[2],94.1%
same,Osmolality,[2],318 mmol/kg
same,pH,[2],9.12
same,25HC3S concentration,[3],25.63 mg/mL
same,% Remaining of 25HC3S,[3],89.7%
same,Osmolality,[3],323 mmol/kg
same,pH,[3],8.92
same,25HC3S concentration,[4],24.40 mg/mL
same,% Remaining of 25HC3S,[4],85.4%
same,Osmolality,[4],328 mmol/kg
same,pH,[4],8.60
same,25HC3S concentration,[5],20.55 mg/mL
same,% Remaining of 25HC3S,[5],71.9%
same,Appearance,[5],light brown
same,Osmolality,[5],352 mmol/kg
same,pH,[5],7.06
same,Osmolality,[6],316 mmol/kg
same,pH,[6],9.36
same,pH,"250 mg/mL HPBCD, 10 mM phosphate, 60°C, 29 days",7.04
same,25HC3S concentration,[7],28.45 mg/mL
same,% Remaining of 25HC3S,[7],100.0%
same,25HC3S concentration,[8],27.03 mg/mL
same,% Remaining of 25HC3S,[8],95.0%
same,Osmolality,[8],291 mmol/kg
same,pH,[8],7.28
same,25HC3S concentration,[9],26.00 mg/mL
same,% Remaining of 25HC3S,[9],91.4%
same,Osmolality,[9],286 mmol/kg
same,pH,[9],6.82
same,25HC3S concentration,[10],24.70 mg/mL
same,% Remaining of 25HC3S,[10],86.8%
same,Osmolality,[10],294 mmol/kg
same,pH,[10],6.34
same,25HC3S concentration,[11],20.58 mg/mL
same,% Remaining of 25HC3S,[11],72.3%
same,Osmolality,[11],300 mmol/kg
same,pH,[11],2.67
same,Osmolality,[12],273 mmol/kg
same,pH,[12],8.09
same,pH,"250 mg/mL HPBCD, 20 mM phosphate, 60°C, 29 days",7.17
same,25HC3S concentration,[13],28.63 mg/mL
same,% Remaining of 25HC3S,[13],100.0%
same,25HC3S concentration,[14],27.03 mg/mL
same,% Remaining of 25HC3S,[14],94.4%
same,Osmolality,[14],325 mmol/kg
same,pH,[14],7.35
same,25HC3S concentration,[15],26.05 mg/mL
same,% Remaining of 25HC3S,[15],91.0%
same,Osmolality,[15],328 mmol/kg
same,pH,[15],7.13
same,25HC3S concentration,[16],24.70 mg/mL
same,% Remaining of 25HC3S,[16],86.3%
same,Osmolality,[16],328 mmol/kg
same,pH,[16],6.80
same,25HC3S concentration,[17],21.00 mg/mL
same,% Remaining of 25HC3S,[17],73.3%
same,Osmolality,[17],354 mmol/kg
same,pH,[17],5.75
same,Osmolality,"250 mg/mL HPBCD, 20 mM phosphate, day 0",311 mmol/kg
